In the NIST ThermoML archive (doi:10.1021/je300517q):
Numbers after ± are expanded uncertainties.

Legend:
[1] = Molar enthalpy of transition or fusion; conditions: Crystal; DSC
[2] = Crystal; DTA

Molar enthalpy of transition or fusion [1]: 0.629 ± 0.0406 kcal/mol
Normal melting temperature [2]: 169.47 ± 0.39 °C
Compound: Nc1cccnn1 [3-pyridazinamine]
